Experiments:
C9 / MAC = settings: previous study; ref Zhao et al., 2014; cited from earlier work
Source text: Paramyosin, a dimeric fibrillar protein, not only forms the thick myofilaments of invertebrate muscle, but also occurs on the surface of helminths and serves as a potential modulator of the host immune system by interacting with human collagen, calgranulin and so on (Zhao et al., [2014]).

[1] = tested on: mice with antigen-induced arthritis (AIA); experiment: Knee joint swelling in antigen-induced arthritis (AIA); format: in vivo, mouse; settings: 40 μg peptide + 25 μg mBSA in 10 μl PBS intraarticular; days 2, 3 and 4 after induction; n = 6; **p < 0.01
Description: AIA was induced in male C57BL/6J wildtype mice (8–10 weeks of age) according to a previously described protocol (Ebbinghaus et al., [2017]) with minor modifications. Briefly, the mice were intraperitoneally injected with 200 ng pertussis toxin (List Biological Laboratories, California, USA) prior to being subcutaneously immunized with 100 μg methylated bovine serum albumin (mBSA; Sigma-Aldrich, St. Louis, Missouri, USA) emulsified in Freund's complete adjuvant (Sigma-Aldrich). The immune response was boosted with identical subcutaneous mBSA immunizations at 14 and 21 days after the first immunization. At 28 days after the initial immunization, the right knee joint of each mouse was intraarticularly injected with 10 μl PBS as the control, while the left knee joint received either 10 μl PBS only (normal group), 25 μg mBSA (to induce AIA) in 10 μl PBS (AIA-only group), 40 μg modified peptide with 25 μg mBSA in 10 μl PBS (modified peptide+AIA group), or 40 μg original peptide with 25 μg mBSA in 10 μl PBS (original peptide+AIA group). Every day after AIA induction (and intraarticular peptide treatment), the difference in the joint diameter (swelling in mm) between the right and left knee joints in each mouse was assessed using a digital micrometer to evaluate the AIA severity. Each joint was measured three times and the mean diameter was calculated and recorded. […]

Row | Substance | inhibition of MAC assembly (C9 / MAC) | joint swelling (left vs right knee diameter) compared to AIA-only mice [1]
1 | VSMGKSLSSKVYVM [original peptide, tetradecapeptide derived from Trichinella spiralis paramyosin (Ts-pmy)] | inhibited the assembly of MAC | –
2 | Myr-GSSKSPSKKKKKKPG-ACP-VSMGKSLSSKVYVM [modified peptide, Ts-pmy-derived peptide modified with a membrane-targeting signal] | – | significant reductions in joint swelling on days 2, 3, and 4 after disease induction

— article PMC7785802, “Therapeutic Efficacy of a Trichinella Spiralis Paramyosin-Derived Peptide Modified With a Membrane-Targeting Signal in Mice With Antigen-Induced Arthritis” (Frontiers in Microbiology, 2020)
